Data set [1] deals with T1, PPARγ2 (Homo sapiens, UniProt P37231).
T1 construct: expressed in transfected cells; host or cells: 293T
T1 sequence (P37231 1-505): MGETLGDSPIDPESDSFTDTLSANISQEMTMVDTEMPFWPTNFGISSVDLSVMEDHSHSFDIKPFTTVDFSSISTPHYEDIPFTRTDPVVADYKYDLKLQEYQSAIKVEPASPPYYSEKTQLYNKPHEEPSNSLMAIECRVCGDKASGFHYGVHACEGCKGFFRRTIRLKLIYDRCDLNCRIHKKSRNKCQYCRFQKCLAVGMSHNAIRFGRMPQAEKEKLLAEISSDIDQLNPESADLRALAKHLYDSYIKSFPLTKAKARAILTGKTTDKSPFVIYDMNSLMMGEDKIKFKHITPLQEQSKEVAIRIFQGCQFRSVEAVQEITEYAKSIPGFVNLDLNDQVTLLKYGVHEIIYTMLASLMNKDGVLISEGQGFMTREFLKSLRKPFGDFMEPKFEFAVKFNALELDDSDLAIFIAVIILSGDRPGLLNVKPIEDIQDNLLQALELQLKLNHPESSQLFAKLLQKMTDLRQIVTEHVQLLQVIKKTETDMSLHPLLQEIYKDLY
Kind of data set: PPARγ2 transcriptional activity, FABP4-Luc luciferase reporter in transfected 293T cells. Format: cell-based. To be noted: for sLZIP-mediated PPARγ2 transcriptional activity: 100 nM si-RNA, with or without 10 nM RZD. Here is the method:
C3H10T1/2 and 293T cells were plated in a 12-well culture dish at a density of 2×10^5 cells/well and incubated for 24 hours. Then, according to instructions of the manufacturer, the cells were transfected with a 0.2 μg of reporter genes and 0.1 to 0.5 μg of a laboratory plasmid using Lipofectamine 2000 or Genefectine. After 24 hours, the cells were cultured in a serum-free DMEM with or without 10 nM of rosiglitazone. siRNAs were prepared using sLZIP and HDAC target sequences (Table 1). For an RNA interference experiment, according to instructions of the manufacturer, the cells were transfected with scrambled control group RNA and appropriate siRNAs using Lipofectamine 2000. Human MSC and C3H10T/1/2 cells were infected with an adenovirus vector containing cDNA of human sLZIP or an empty vector. The infected medium was exchanged with a fresh medium after two hours.
Appropriately transfected cells were washed with cold PBS twice, and a reporter lysis buffer (Promega) was used and lysed in a culture dish. Luciferase analysis was performed using a luciferase analysis system (Promega Corporation, Madison, Wis.). A luciferase activity was recorded in Luminometer 20/20^n (Turner BioSystems, Sunnyvale, Calif.) according to instructions of the manufacturer. The luciferase activity was normalized to a β-galactosidase activity. For β-galactosidase analysis, CMV-β-galactosidase was transfected with luciferase reporter genes. All pieces of data were represented as mean±standard deviation of the results from at least three independent experiments.
In order to examine an effect of sLZIP on the transcriptional activity of PPARγ2, 293T cells were temporarily transfected with PPARγ2 (0.5 μg), β-galactosidase (0.1 μg), FABP4-Luc reporter genes (0.2 μg) and sLZIP at different contents (0.1 to 0.5 μg). After the transfection, the cells were stimulated with or without 10 nM of rosiglitazone (RZD) (FIG. 1A), pioglitazone (PZD) (FIG. 1B), and troglitazone (TZD) (FIG. 1C). A relative luciferase activity was analyzed with or without cell ligand treatment 24 hours after transfection. Also, the 293T cells were transiently transfected with si-sLZIP at different contents (50 and 100 nM), and the cells were treated or not treated with RZD (FIG. 1D). FABP4-Luc stable C3H10T1/2 cells were infected with a sLZIP-expressing adenovirus, and then differentiated into adipocytes for 4 days (FIG. 1E). A luciferase activity was normalized to a β-galactosidase activity and represented as a relative activity (fold change). All experiments were repeated three times, and bars in the graph represent mean±standard deviation. *, P<0.05; **, P<0.01
For this purpose, 293T cells were transiently transfected with PPARγ2 (0.5 μg), β-galactosidase (0.1 μg), FABP4-Luc reporter genes (0.2 μg) and sLZIP (0.1 μg). After the transfection, the cells were stimulated with or without 10 nM of RZD and 10 nM of TSA (FIG. 4A). A promoter activity was measured according to luciferase analysis. In the 293T cells, FABP4-Luc reporter genes, sLZIP, PPAR, β-galactosidase, and 100 nM of si-RNAs and HDAC1, 2, 3 and 8 for a control group were expressed. After the transfection, the cells were stimulated with or without 10 nM of RZD, and a promoter activity was measured (FIG. 4B). 293T cells were temporarily transfected with FABP4-Luc reporter genes, PPARγ2, β-galactosidase, HDAC3 (0.5 μg) and sLZIP (0.1 μg). After the transfection, the cells were stimulated with or without 10 nM of RZD, and luciferase analysis was performed (FIG. 4C). A luciferase activity was normalized to a β-galactosidase activity and represented as a relative intensity (fold change). All experiments were repeated three times, and bars in the graph represent mean±standard deviation. GFP-sLZIP expression constructs were expressed in C3H10T1/2 cells, rabbit anti-HDAC3 antibodies and Texas Red-labeled anti-rabbit antibodies were used and analysis was performed under a fluorescence microscope. The nucleus was stained with DAPI (FIG. 4D). […]
In general terms: A reporter such as luciferase makes a cellular process visible.

Data set [2] has as its system PPARγ2. Briefly: GST / His pull-down and immunoprecipitation of sLZIP with PPARγ2. It is filed as binding. To be noted: GST pull-down, transfected 293T cells. As to the method: 293T cells were obtained and washed with cold PBS. The cells were re-suspended in an IP lysis buffer [25 mM of Tris-HCl (pH 7.4), 150 mM of NaCl, 1 mM of EDTA, 1% NP-40 and 5% glycerol, and a protease inhibitor]. A suspension was centrifuged at 16,000×g for 20 minutes at 4° C. Supernatants were collected and incubated with 0.5 μg of appropriate antibodies and 25 μl of protein A/G-agarose or a GST Sepharose 4B bead for 24 hours at 4° C. A protein complex was centrifuged at 1,000×g with a cold IP lysis buffer for 1 minute and washed five times. The final pellet was re-suspended in 50 μl of an SDS-sample buffer containing 5% β-mercaptoethanol and heated for 10 minutes at 100° C. A protein sample was isolated in SDS-PAGE (8 to 10%) and transferred to nitrocellulose membranes. Co-precipitated proteins were detected according to western blotting using specific antibodies.
In order to examine whether the transcriptional activity of PPARγ2 is regulated by interaction with sLZIP, interaction between sLZIP and PPARγ2 was examined. For this purpose, 293T cells were transfected with GST-sLZIP and Myc-PPARγ2. Cell lysates were obtained and GST pull-down analysis was performed using a glutathione 4B bead. A protein complex was analyzed in SDS-PAGE and then immunoblotted with specific antibodies (FIG. 2A). The 293T cells were transfected with GST-PPARγ2 and Flag-sLZIP, and identified according to GST-pull-down analysis (FIG. 2B). PPARγ2 was translated in vitro by a TNT translation system (Promega). His-sLZIP proteins were expressed in BL21 cells using an IPTG-inducement system. Purified His-sLZIP proteins were subjected to His pull-down analysis. Proteins bound to the bead were analyzed in SDS-PAGE, and then immunoblotted with anti-PPARγ2 and anti-His antibodies (FIG. 2C). GFP-PPARγ2 and Flag-sLZIP constructs were expressed in C3H10T1/2 cells, and analyzed using mouse anti-Flag and Texas Red-labeled anti-mouse antibodies under a fluorescence microscope. The nucleus was stained with DAPI (FIG. 2D).
Activation of many nuclear receptors depends on a supplement of coactivators. Therefore, a domain of sLZIP necessary for binding with PPARγ2 was examined. For this purpose, 293T cells were transfected with GST-full length sLZIP (1-354), N-terminal deletion mutant sLZIP (1-228), C-terminal deletion mutant sLZIP (229-354), CC-terminal deletion mutant sLZIP (297-354) and PPARγ2. Cell lysates were obtained and GST pull-down analysis was performed using a glutathione 4B bead. A protein complex was analyzed in SDS-PAGE, and then immunoblotted with specific antibodies (FIG. 3A). 293T cells were transfected with Flag-full length PPARγ2, full length PPARγ2, N-terminal deletion mutant PPARγ2 (1-310), C-terminal deletion mutants PPARγ2 (139-505) and GST-sLZIP. Cell lysates were obtained and GST pull-down analysis was performed. A protein complex was analyzed in SDS-PAGE, and then immunoblotted with anti-GST and anti-Flag antibodies (FIG. 3B).
For this purpose, 293T cells were transfected with GST-PPARγ2 and Flag-sLZIP and were treated or not treated with 10 nM of RZD for 24 hours. Cell lysates were obtained and GST pull-down analysis (FIG. 5A) and immunoprecipitation (FIG. 5B) were performed using a glutathione 4B bead. A protein complex was analyzed in SDS-PAGE, and immunoblotted with anti-GST and anti-Flag antibodies. GST-PARγ2 and Flag-sLZIP were expressed in the 293T cells, and the cells were treated with 10 nM of RZD according to time of day. The cell lysates were GST pull-down analyzed (FIG. 5C). 293T cells were transfected with GST-HDAC3 and Flag-sLZIP, and treated or not treated with 10 nM of RZD for 24 hours. The cell lysates were GST pull-down analyzed (FIG. 5D). Flag-sLZIP was expressed in the 293T cells, and the cells were treated with 10 nM of RZD for 24 hours. Immunoprecipitation analysis of the cell lysates was performed using anti-NCoR1 antibodies. […]

Ends that are not written are not given here. d = 2'-deoxy (DNA)

In the case of “si-sLZIP: siRNA for sLZIP, SEQ ID NO: 5 and 6 (+dTdT) (chain 1 GGACCCAGAUGACUCCACAGCAUAU; chain 2 AUAUGCUGUGGAGUCAUCUGGGUCC; 3' dTdT, sugars by position and backbone not given here) [reference compound]”, in the data set with PPARγ2 [1] (si-sLZIP 50 and 100 nM, treated or not treated with RZD), the “transcriptional activity of PPARγ2 (relative luciferase activity)” value is “increased the transcriptional activity of PPARγ2”.

“siRNA for HDAC2: siRNA against HDAC2, SEQ ID NO: 9 and 10 (chain 1 GGUCAAUAAGACCAGAUAA; chain 2 UUAUCUGGUCUUAUUGACCG; 3' dTdT, sugars by position and backbone not given here) [reference compound]”: the “sLZIP-mediated PPARγ2 transcriptional activity” value with PPARγ2 [1] is listed as “not involved in sLZIP-mediated PPARγ2 regulation”.

For “CC domains of sLZIP: CC-terminal deletion mutant of sLZIP (297-354), contains proline-rich region (YMPQAPSAEPPLEWPFPDLFSEPLCRGPILPLQANLTRKGGWLPTGSPSVILQDRYSG; also: fused to dimerising Fc or GST)”, in the data set with PPARγ2 [2], the “interaction with PPARγ2” value is listed as “interacted with PPARγ2”.

As for “siRNA for HDAC1: siRNA against HDAC1, SEQ ID NO: 7 and 8 (chain 1 CGACUGUUUGAGAACCUUA; chain 2 UAAGGUUCUCAAACAGUCGCU; 3' dTdT, sugars by position and backbone not given here) [reference compound]”, the “sLZIP-mediated PPARγ2 transcriptional activity” value in the data set with PPARγ2 [1] is “not involved in sLZIP-mediated PPARγ2 regulation”.

Regarding “siRNA for HDAC8: siRNA against HDAC8, SEQ ID NO: 13 and 14 (chain 1 CAUUCAGGAUGGCAUACAA; chain 2 UUGUAUGCCAUCCUGAAUGGG; 3' dTdT, sugars by position and backbone not given here) [reference compound]”, in the data set with PPARγ2 [1], the “sLZIP-mediated PPARγ2 transcriptional activity” value is reported as “not involved in sLZIP-mediated PPARγ2 regulation”.

Consider “HDAC3: siRNA used to knock down HDAC3, SEQ ID NO: 11 and 12 (chain 1 GCCGGUUAUCAACCAGGUA; chain 2 UACCUGGUUGAUAACCGGC; 3' dTdT, sugars by position and backbone not given here) [reference compound]”, for which, in the data set with PPARγ2 [1], the “sLZIP-mediated PPARγ2 transcriptional activity” value is on record as “significantly increased”.

B1: C domains of sLZIP: C-terminal deletion mutant of sLZIP (229-354) (protein)
chain: MYSSDTRGSLPAEHGVLSRQLRALPSEDPYQLELPALQSEVPKDSTHQWLDGSDCVLQAPGNTSCLLHYMPQAPSAEPPLEWPFPDLFSEPLCRGPILPLQANLTRKGGWLPTGSPSVILQDRYSG
modifications: left off: a dimerising Fc or GST
Regarding B1, the “interaction with PPARγ2” value in the data set on PPARγ2 [2] is “interacted with PPARγ2”.

Values taken from patent US10456446B2, “Use of human small leucine zipper protein in osteogenesis procedure” (Korea University Research and Business Foundation, priority 2013, dated 2019).
